We go through 16 compounds from US20230348424A1, “HETEROCYCLIC COMPOUNDS AND METHODS OF USE” (Schrödinger, Inc., priority 2022, published 2023).

Chain of SOS1:KRAS (G12C) interaction (Q07889 564-1049, stated change not applied): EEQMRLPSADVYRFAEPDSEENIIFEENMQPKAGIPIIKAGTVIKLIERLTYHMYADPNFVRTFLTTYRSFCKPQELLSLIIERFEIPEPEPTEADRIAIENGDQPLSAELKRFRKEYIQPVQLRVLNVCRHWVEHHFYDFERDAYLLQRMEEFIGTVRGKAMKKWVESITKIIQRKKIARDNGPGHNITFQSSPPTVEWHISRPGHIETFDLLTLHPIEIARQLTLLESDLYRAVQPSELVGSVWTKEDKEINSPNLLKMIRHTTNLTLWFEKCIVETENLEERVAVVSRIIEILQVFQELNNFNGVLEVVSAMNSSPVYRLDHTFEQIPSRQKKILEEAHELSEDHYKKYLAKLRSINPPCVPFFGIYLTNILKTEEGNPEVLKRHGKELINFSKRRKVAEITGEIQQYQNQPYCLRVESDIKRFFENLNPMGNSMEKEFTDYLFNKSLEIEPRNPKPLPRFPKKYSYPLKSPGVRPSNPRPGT

The test addresses SOS1:KRAS (G12C) interaction (Homo sapiens (Human), UniProt Q07889). The test is described as follows: SOS1 KRas(G12C) FRET Assay. The conditions noted are these: 0.5 nM His10-SOS1 (res. 564-1049), 2.5 nM GST-KRAS G12C (res. 1-169), 2 hrs at RT. It is filed as binding. The procedure, abridged: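 GST-KRAS G12C (res. 1-169) at 2.5 nM and His10-SOS1 (res. 564-1049) at 0.5 nM, final, in PBS with 0.1% BSA, 5 mM MgCl2, 100 mM KF, 5 mM DTT and 0.5% DMSO. After 2 h at RT, FRET read at 665/615 nm and normalized to DMSO and no-SOS1 controls. IC50 by non-linear regression.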
The term IC50 denotes the concentration that inhibits the measured activity by half. A low value points to greater potency. As to `CN1C[C@@H]2[C@H](C1)[C@H]2Nc1cc(=O)n(C2(C(F)F)CC2)cc1C(=O)N[C@H](c1cccc(C(F)F)c1F)C(F)F` [Example 159, N-((R)-1-(3-(difluoromethyl)-2-fluorophenyl)-2,2-difluoroethyl)-1-(1-(difluoromethyl)cyclopropyl)-4-(((1R,5S,6s)-3-methyl-3-azabicyclo[3.1.0]hexan-6-yl)amino)-6-oxo-1,6-dihydropyridine-3-carboxamide], 1060 nM corresponded to half-maximal inhibition (IC50).
As for `C[C@@H](NC(=O)c1cn(C23CC(C2)C3)c(=O)cc1N[C@H]1[C@@H]2CN(C)C[C@@H]21)c1cccc(C(F)(F)F)c1` [Example 160, 1-(bicyclo[1.1.1]pentan-1-yl)-4-(((1R,5S,6s)-3-methyl-3-azabicyclo[3.1.0]hexan-6-yl)amino)-6-oxo-N-((R)-1-(3-(trifluoromethyl)phenyl)ethyl)-1,6-dihydropyridine-3-carboxamide], the figure is 21.4 nM; as for `C[C@@H](NC(=O)c1cn(C23CC(C2)C3)c(=O)cc1N[C@H]1[C@@H]2CN(C)C[C@@H]21)c1cccc(S(F)(F)(F)(F)F)c1` [Example 161, 1-(bicyclo[1.1.1]pentan-1-yl)-4-(((1R,5S,6s)-3-methyl-3-azabicyclo[3 .1.0]hexan-6-yl)amino)-6-oxo-N-((R)-1-(3-(pentafluoro-16-sulfaneyl)phenyl)ethyl)-1,6-dihydropyridine-3-carboxamide], 24 nM.
The same measure for `C[C@@H](NC(=O)c1cn(C23CC(C2)C3)c(=O)cc1N[C@H]1[C@@H]2CN(C)C[C@@H]21)c1cccc(S(F)(F)(F)(F)F)c1F` [Example 162, 1-(bicyclo[1.1.1]pentan-1-yl)-N-((R)-1-(2-fluoro-3-(pentafluoro-16-sulfaneyl)phenyl)ethyl)-4-(((1R,5S,6s)-3-methyl-3-azabicyclo[3.1.0]hexan-6-yl)amino)-6-oxo-1,6-dihydropyridine-3-carboxamide]: 27.8 nM; for `C[C@@H](NC(=O)c1cn(C2CCC2)c(=O)cc1N[C@H]1[C@@H]2CN(C)C[C@@H]21)c1cccc(S(F)(F)(F)(F)F)c1` [Example 163, 1-cyclobutyl-4-(((1R,5S,6s)-3-methyl-3-azabicyclo[3.1.0]hexan-6-yl)amino)-6-oxo-N-((R)-1-(3-(pentafluoro-16-sulfaneyl)phenyl)ethyl)-1,6-dihydropyridine-3-carboxamide]: 29.3 nM.
Take `C[C@@H](NC(=O)c1cn(C2CCC2)c(=O)cc1NC1CCN(C)CC1)c1cccc(S(F)(F)(F)(F)F)c1` [Example 164, (R)-1-cyclobutyl-4-((1-methylpiperidin-4-yl)amino)-6-oxo-N-(1-(3-(pentafluoro-16-sulfaneyl)phenyl)ethyl)-1,6-dihydropyridine-3-carboxamide]: the IC50 was determined as 13.5 nM.
`CC(NC(=O)c1cn(C2(C(F)F)CC2)c(=O)cc1NC1CCN(C)CC1)c1ccc(C2CC2)c(C(F)(F)F)c1` (stereo not shown) [Example 169, N-(1-(4-cyclopropyl-3-(trifluoromethyl)phenyl)ethyl)-1-(1-(difluoromethyl)cyclopropyl)-4-((1-methylpiperidin-4-yl)amino)-6-oxo-1,6-dihydropyridine-3-carboxamide]: the IC50 stood at 5900 nM.
The same measure for `CC(NC(=O)c1cn(C2(C(F)F)CC2)c(=O)cc1NC1CCN(C)CC1)c1cccc(C(F)(F)F)c1Cl` (stereo not shown) [Example 170, N-(1-(2-chloro-3-(trifluoromethyl)phenyl)ethyl)-1-(1-(difluoromethyl)cyclopropyl)-4-((1-methylpiperidin-4-yl)amino)-6-oxo-1,6-dihydropyridine-3-carboxamide]: 40.9 nM.
As for `COc1ccc(C(C)NC(=O)c2cn(C3(C(F)F)CC3)c(=O)cc2NC2CCN(C)CC2)cc1C(F)(F)F` (stereo not shown) [Example 173, 1-(1-(difluoromethyl)cyclopropyl)-N-(1-(4-methoxy-3-(trifluoromethyl)phenyl)ethyl)-4-((1-methylpiperidin-4-yl)amino)-6-oxo-1,6-dihydropyridine-3-carboxamide], the figure is 1180 nM; as for `C[C@@H](NC(=O)c1cn(C2(C(F)F)CC2)c(=O)cc1N[C@H]1[C@@H]2CN(C)C[C@@H]21)c1cccc(C(F)(F)c2ccncc2)c1F` [Example 174, N-((R)-1-(3-(difluoro(pyridin-4-yl)methyl)-2-fluorophenyl)ethyl)-1-(1-(difluoromethyl)cyclopropyl)-4-(((1R,5S,6s)-3-methyl-3-azabicyclo[3.1.0]hexan-6-yl)amino)-6-oxo-1,6-dihydropyridine-3-carboxamide], 1180 nM; as for `C[C@H](NC(=O)c1cn(C2(C(F)F)CC2)c(=O)cc1N[C@H]1[C@@H]2CN(C)C[C@@H]21)c1cccc(C(F)(F)c2ccncc2)c1F` [Example 175, N-((S)-1-(3-(difluoro(pyridin-4-yl)methyl)-2-fluorophenyl)ethyl)-1-(1-(difluoromethyl)cyclopropyl)-4-(((1R,5S,6s)-3-methyl-3-azabicyclo[3.1.0]hexan-6-yl)amino)-6-oxo-1,6-dihydropyridine-3-carboxamide], 13 nM.
As for `CC(NC(=O)c1cn(C2(C(F)F)CC2)c(=O)cc1N[C@H]1[C@@H]2CN(C)C[C@@H]21)c1cccc(C(F)(F)c2cocn2)c1F` (stereo partly drawn) [Example 176, N-(1-(3-(difluoro(oxazol-4-yl)methyl)-2-fluorophenyl)ethyl)-1-(1-(difluoromethyl)cyclopropyl)-4-(((1R,5S,6s)-3-methyl-3-azabicyclo[3.1.0]hexan-6-yl)amino)-6-oxo-1,6-dihydropyridine-3-carboxamide], the figure is 109 nM.
Compound `C[C@@H](NC(=O)c1cn(C23CC(C2)C3)c(=O)cc1N[C@H]1[C@@H]2CN(C)C[C@@H]21)c1cccc(C#N)c1F` [Example 179, 1-(bicyclo[1.1.1]pentan-1-yl)-N-((R)-1-(3-cyano-2-fluorophenyl)ethyl)-4-(((1R,5S,6s)-3-methyl-3-azabicyclo[3.1.0]hexan-6-yl)amino)-6-oxo-1,6-dihydropyridine-3-carboxamide] had an IC50 of 70.7 nM.
For `C[C@@H](NC(=O)c1cn(C23CC(C2)C3)c(=O)cc1N[C@H]1[C@@H]2CN(C)C[C@@H]21)c1cccc(OC(F)F)c1Cl` [Example 180, 1-(bicyclo[1.1.1]pentan-1-yl)-N-((R)-1-(2-chloro-3-(difluoromethoxy)phenyl)ethyl)-4-(((1R,5S,6s)-3-methyl-3-azabicyclo[3.1.0]hexan-6-yl)amino)-6-oxo-1,6-dihydropyridine-3-carboxamide], the IC50 turned out to be 113 nM.
The same measure for `Cc1c(C#N)cccc1[C@@H](C)NC(=O)c1cn(C23CC(C2)C3)c(=O)cc1N[C@H]1[C@@H]2CN(C)C[C@@H]21` [Example 181, 1-(bicyclo[1.1.1]pentan-1-yl)-N-((R)-1-(3-cyano-2-methylphenyl)ethyl)-4-(((1R,5S,6s)-3-methyl-3-azabicyclo[3.1.0]hexan-6-yl)amino)-6-oxo-1,6-dihydropyridine-3-carboxamide]: 79.8 nM.
As for `C[C@@H](NC(=O)c1cn(C2(C(F)F)CC2)c(=O)cc1NCC12CC(O)(C1)C2)c1cccc(C(F)F)c1F` [Example 182, (R)-N-(1-(3-(difluoromethyl)-2-fluorophenyl)ethyl)-1-(1-(difluoromethyl)cyclopropyl)-4-(((3-hydroxybicyclo[1.1.1]pentan-1-yl)methyl)amino)-6-oxo-1,6-dihydropyridine-3-carboxamide], the figure is 33.8 nM.
